# Where a SMILES comes first, the peptide text is derived from it.
# How the values were obtained:
# Escherichia coli [1] = experiment: Potentiation of colistin-induced antibacterial activity against Escherichia coli AR-0493 assessed as minimum re-sensitizing concentration; assay type: functional; conditions: read-out: MEC
# Escherichia coli [2] = experiment: Antibacterial activity against Escherichia coli AR-0493 by CLSI based susceptibility testing method; assay type: functional
# [3] = Cytotoxicity against human HepG2 cells by Cell Titer Glo assay; assay type: toxicity, cell-based
# [4] = Selectivity index, ratio of GI50 for cytotoxicity against human HepG2 cells to MEC for potentiation of colistin-induced antibacterial activity against Escherichia coli AR-0493 assessed as minimum re-sensitizing concentration; assay type: toxicity, cell-based; conditions: read-out: Selectivity Index
# Escherichia coli [5] = experiment: Potentiation of colistin-induced antibacterial activity against Escherichia coli AR-0493 harboring mcr-1 gene assessed as colistin MIC at 1 ug/ml; assay type: functional; conditions: dose 1 µg/ml
# Escherichia coli [6] = experiment: Potentiation of colistin-induced antibacterial activity against Escherichia coli AR-0538 harboring mcr-2 gene assessed as colistin MIC at 1 ug/ml; assay type: functional; conditions: dose 1 µg/ml
# Salmonella typhimurium [7] = experiment: Potentiation of colistin-induced antibacterial activity against Salmonella typhimurium AR-0539 harboring mcr-3 gene assessed as colistin MIC at 1 ug/ml; assay type: functional, Salmonella enterica subsp. enterica serovar Typhimurium; conditions: Salmonella enterica, dose 1 µg/ml
# Salmonella typhimurium [8] = experiment: Potentiation of colistin-induced antibacterial activity against Salmonella typhimurium AR-0635 harboring mcr-4 gene assessed as colistin MIC at 1 ug/ml; assay type: functional, Salmonella enterica subsp. enterica serovar Typhimurium; conditions: Salmonella enterica, dose 1 µg/ml
# Klebsiella pneumoniae [9] = experiment: Potentiation of colistin-induced antibacterial activity against Klebsiella pneumoniae AR-0497 harboring mcr-1 gene assessed as colistin MIC at 1 ug/ml; assay type: functional; conditions: dose 1 µg/ml
# Acinetobacter baumannii [10] = experiment: Potentiation of colistin-induced antibacterial activity against Acinetobacter baumannii AR-0310 assessed as colistin MIC at 1 ug/ml; assay type: functional; conditions: dose 1 µg/ml
# Pseudomonas aeruginosa [11] = experiment: Potentiation of colistin-induced antibacterial activity against Pseudomonas aeruginosa AR-0239 assessed as colistin MIC at 1 ug/ml; assay type: functional; conditions: dose 1 µg/ml
# Escherichia coli [12] = experiment: Synergistic antibacterial activity against Escherichia coli AR-0493 assessed as fractional inhibitory concentration index in presence of colistin by Checkerboard broth microdilution assay; assay type: functional
# Escherichia coli [13] = experiment: Antibacterial activity against Escherichia coli AR-0493 harboring mcr-1 gene; assay type: functional
# Escherichia coli [14] = experiment: Antibacterial activity against Escherichia coli AR-0538 harboring mcr-2 gene; assay type: functional
# Salmonella typhimurium [15] = experiment: Antibacterial activity against Salmonella typhimurium AR-0539 harboring mcr-3 gene; assay type: functional, Salmonella enterica subsp. enterica serovar Typhimurium; conditions: Salmonella enterica
# Salmonella typhimurium [16] = experiment: Antibacterial activity against Salmonella typhimurium AR-0635 harboring mcr-4 gene; assay type: functional, Salmonella enterica subsp. enterica serovar Typhimurium; conditions: Salmonella enterica
# Klebsiella pneumoniae [17] = experiment: Antibacterial activity against Klebsiella pneumoniae AR-0497 harboring mcr-1 gene; assay type: functional
# Acinetobacter baumannii [18] = experiment: Antibacterial activity against Acinetobacter baumannii AR-0310; assay type: functional
# Pseudomonas aeruginosa [19] = experiment: Antibacterial activity against Pseudomonas aeruginosa AR-0239; assay type: functional
structure (smiles),measurement,setting,value
CC(C)(C)Nc1nc2nonc2nc1NC(C)(C)C,minimal effective concentration,Escherichia coli [1],8 µg/mL
C1CCC(Nc2nc3nonc3nc2NC2CCCCC2)CC1,minimal effective concentration,Escherichia coli [1],4 µg/mL
CCCNc1nc2nonc2nc1NCCC,minimal effective concentration,Escherichia coli [1],> 16 µg/mL
CCCCNc1nc2nonc2nc1NCCCC,minimal effective concentration,Escherichia coli [1],8 µg/mL
CCCCCCNc1nc2nonc2nc1NCCCCCC,minimal effective concentration,Escherichia coli [1],0.5 µg/mL
same,MIC,Escherichia coli [2],> 64 µg/mL
same,GI50,[3],0.59 µg/mL
same,selectivity ratio,[4],1.2
C1CCC(Nc2nc3nonc3nc2NC2CCCC2)C1,minimal effective concentration,Escherichia coli [1],8 µg/mL
Clc1cccc(Nc2nc3nonc3nc2Nc2cccc(Cl)c2)c1,MIC,Escherichia coli [5],1 µg/mL
same,MIC,Escherichia coli [6],1 µg/mL
same,MIC,Salmonella typhimurium [7],1 µg/mL
same,MIC,Salmonella typhimurium [8],1 µg/mL
same,MIC,Klebsiella pneumoniae [9],1 µg/mL
same,MIC,Acinetobacter baumannii [10],0.25 µg/mL
same,MIC,Pseudomonas aeruginosa [11],1 µg/mL
FC1(F)CC(CNc2nc3nonc3nc2Nc2cccc(Cl)c2)C1,minimal effective concentration,Escherichia coli [1],1 µg/mL
CC(C)CCNc1nc2nonc2nc1NCCC(C)C,minimal effective concentration,Escherichia coli [1],2 µg/mL
Clc1ccc(CNc2nc3nonc3nc2NCc2ccc(Cl)cc2)cc1,minimal effective concentration,Escherichia coli [1],0.125 µg/mL
same,MIC,Escherichia coli [2],> 64 µg/mL
same,GI50,[3],4.5 µg/mL
same,selectivity ratio,[4],36
same,MIC,Escherichia coli [5],0.5 µg/mL
same,MIC,Escherichia coli [6],1 µg/mL
same,MIC,Salmonella typhimurium [7],1 µg/mL
same,MIC,Salmonella typhimurium [8],2 µg/mL
same,MIC,Klebsiella pneumoniae [9],2 µg/mL
same,MIC,Acinetobacter baumannii [10],0.5 µg/mL
same,MIC,Pseudomonas aeruginosa [11],1 µg/mL
same,fractional inhibitory concentration index (FICI),Escherichia coli [12],0.07
Clc1cccc(Nc2nc3nonc3nc2NCCc2c[nH]c3ccc(Cl)cc23)c1,minimal effective concentration,Escherichia coli [1],1 µg/mL
CCCCCCCCCCNc1nc2nonc2nc1Nc1cccc(Cl)c1,minimal effective concentration,Escherichia coli [1],2 µg/mL
CC(C)CNc1nc2nonc2nc1Nc1cccc(Cl)c1,minimal effective concentration,Escherichia coli [1],2 µg/mL
CCCNc1nc2nonc2nc1Nc1cccc(Cl)c1,minimal effective concentration,Escherichia coli [1],1 µg/mL
CCCCCCCCCCCCNc1nc2nonc2nc1Nc1cccc(Cl)c1,minimal effective concentration,Escherichia coli [1],> 16 µg/mL
CCCCCCCCNc1nc2nonc2nc1Nc1cccc(Cl)c1,minimal effective concentration,Escherichia coli [1],1 µg/mL
CNc1nc2nonc2nc1Nc1cccc(Cl)c1,minimal effective concentration,Escherichia coli [1],8 µg/mL
Clc1ccc2[nH]cc(CCNc3nc4nonc4nc3NCCc3c[nH]c4ccc(Cl)cc34)c2c1,minimal effective concentration,Escherichia coli [1],> 16 µg/mL
Clc1cccc(Nc2nc3nonc3nc2NCC2CC2)c1,minimal effective concentration,Escherichia coli [1],1 µg/mL
c1ccc(CCNc2nc3nonc3nc2NCCc2ccccc2)cc1,minimal effective concentration,Escherichia coli [1],2 µg/mL
Clc1cccc(Nc2nc3nonc3nc2NCCc2ccccc2)c1,minimal effective concentration,Escherichia coli [1],0.5 µg/mL
same,MIC,Escherichia coli [2],> 64 µg/mL
same,GI50,[3],0.83 µg/mL
same,selectivity ratio,[4],1.7
Clc1cccc(Nc2nc3nonc3nc2NCCNc2ccc3ccccc3n2)c1,minimal effective concentration,Escherichia coli [1],16 µg/mL
FC(F)(F)c1cccc(CNc2nc3nonc3nc2Nc2cccc(Cl)c2)c1,minimal effective concentration,Escherichia coli [1],0.25 µg/mL
same,MIC,Escherichia coli [2],> 64 µg/mL
same,GI50,[3],5.5 µg/mL
same,selectivity ratio,[4],22
FC(F)CNc1nc2nonc2nc1Nc1cccc(Cl)c1,minimal effective concentration,Escherichia coli [1],2 µg/mL
FC(F)(F)Oc1cccc(CNc2nc3nonc3nc2Nc2cccc(Cl)c2)c1,minimal effective concentration,Escherichia coli [1],1 µg/mL
Clc1cccc(Nc2nc3nonc3nc2NC2CCCCC2)c1,minimal effective concentration,Escherichia coli [1],1 µg/mL
Clc1ccc(CNc2nc3nonc3nc2Nc2cccc(Cl)c2)cc1,minimal effective concentration,Escherichia coli [1],0.25 µg/mL
same,MIC,Escherichia coli [2],> 64 µg/mL
same,GI50,[3],4.9 µg/mL
same,selectivity ratio,[4],19
c1ccc2nc(NCCNc3nc4nonc4nc3NCCNc3ccc4ccccc4n3)ccc2c1,minimal effective concentration,Escherichia coli [1],> 16 µg/mL
Clc1cccc(Nc2nc3nonc3nc2NC2CC2)c1,minimal effective concentration,Escherichia coli [1],1 µg/mL
CCCCCCCCCCNc1nc2nonc2nc1NCCCCCCCCCC,minimal effective concentration,Escherichia coli [1],> 16 µg/mL
CCCCCCNc1nc2nonc2nc1Nc1cccc(Cl)c1,minimal effective concentration,Escherichia coli [1],1 µg/mL
CCCCCCCCCCCCNc1nc2nonc2nc1NCCCCCCCCCCCC,minimal effective concentration,Escherichia coli [1],> 16 µg/mL
Clc1cccc(Nc2nc3nonc3nc2NCC2COC2)c1,minimal effective concentration,Escherichia coli [1],> 16 µg/mL
CCCCCCCNc1nc2nonc2nc1Nc1cccc(Cl)c1,minimal effective concentration,Escherichia coli [1],0.5 µg/mL
same,MIC,Escherichia coli [2],> 64 µg/mL
same,GI50,[3],3.3 µg/mL
same,selectivity ratio,[4],6.6
CCCCNc1nc2nonc2nc1Nc1cccc(Cl)c1,minimal effective concentration,Escherichia coli [1],0.5 µg/mL
same,MIC,Escherichia coli [2],> 64 µg/mL
same,GI50,[3],5.7 µg/mL
same,selectivity ratio,[4],11
Fc1cccc(CNc2nc3nonc3nc2Nc2cccc(Cl)c2)c1,minimal effective concentration,Escherichia coli [1],1 µg/mL
CCCCCCCNc1nc2nonc2nc1NCCCCCCC,minimal effective concentration,Escherichia coli [1],0.5 µg/mL
same,MIC,Escherichia coli [2],> 64 µg/mL
same,GI50,[3],0.65 µg/mL
same,selectivity ratio,[4],1.3
CC(C)(C)OC(=O)N1CC(CNc2nc3nonc3nc2Nc2cccc(Cl)c2)C1,minimal effective concentration,Escherichia coli [1],4 µg/mL
Clc1cccc(CNc2nc3nonc3nc2NCc2cccc(Cl)c2)c1,minimal effective concentration,Escherichia coli [1],0.5 µg/mL
same,MIC,Escherichia coli [2],> 64 µg/mL
same,GI50,[3],1.6 µg/mL
same,selectivity ratio,[4],3.2
CCCCCCCCNc1nc2nonc2nc1NCCCCCCCC,minimal effective concentration,Escherichia coli [1],4 µg/mL
FC(F)(F)c1nc(NCCCNc2nc3nonc3nc2Nc2cccc(Cl)c2)ccc1Cl,minimal effective concentration,Escherichia coli [1],0.25 µg/mL
same,MIC,Escherichia coli [2],> 64 µg/mL
same,GI50,[3],8.7 µg/mL
same,selectivity ratio,[4],35
same,MIC,Escherichia coli [5],0.5 µg/mL
same,MIC,Escherichia coli [6],1 µg/mL
same,MIC,Salmonella typhimurium [7],0.5 µg/mL
same,MIC,Salmonella typhimurium [8],1 µg/mL
same,MIC,Klebsiella pneumoniae [9],1 µg/mL
same,MIC,Acinetobacter baumannii [10],0.25 µg/mL
same,MIC,Pseudomonas aeruginosa [11],1 µg/mL
same,fractional inhibitory concentration index (FICI),Escherichia coli [12],0.039
CCCCCNc1nc2nonc2nc1NCCCCC,minimal effective concentration,Escherichia coli [1],1 µg/mL
Clc1cccc(Nc2nc3nonc3nc2NCC2CCC2)c1,minimal effective concentration,Escherichia coli [1],1 µg/mL
Clc1cccc(Nc2nc3nonc3nc2NC2CCCC2)c1,minimal effective concentration,Escherichia coli [1],1 µg/mL
CC(C)(C)Nc1nc2nonc2nc1Nc1cccc(Cl)c1,minimal effective concentration,Escherichia coli [1],2 µg/mL
FC(F)(F)Oc1cccc(CNc2nc3nonc3nc2NCc2cccc(OC(F)(F)F)c2)c1,minimal effective concentration,Escherichia coli [1],0.125 µg/mL
same,MIC,Escherichia coli [2],> 64 µg/mL
same,GI50,[3],2.3 µg/mL
same,selectivity ratio,[4],18
FC(F)(F)c1cccc(CNc2nc3nonc3nc2NCc2cccc(C(F)(F)F)c2)c1,minimal effective concentration,Escherichia coli [1],> 16 µg/mL
CCCCCNc1nc2nonc2nc1Nc1cccc(Cl)c1,minimal effective concentration,Escherichia coli [1],0.5 µg/mL
same,MIC,Escherichia coli [2],> 64 µg/mL
same,GI50,[3],2.1 µg/mL
same,selectivity ratio,[4],4.3
Fc1cccc(CNc2nc3nonc3nc2NCc2cccc(F)c2)c1,minimal effective concentration,Escherichia coli [1],> 16 µg/mL
FC(F)(F)c1nc(NCCCNc2nc3nonc3nc2NCCCNc2ccc(Cl)c(C(F)(F)F)n2)ccc1Cl,minimal effective concentration,Escherichia coli [1],0.25 µg/mL
same,MIC,Escherichia coli [2],> 64 µg/mL
same,GI50,[3],2.6 µg/mL
same,selectivity ratio,[4],10
Clc1cccc(CNc2nc3nonc3nc2Nc2cccc(Cl)c2)c1,minimal effective concentration,Escherichia coli [1],0.5 µg/mL
same,MIC,Escherichia coli [2],> 64 µg/mL
same,GI50,[3],3.8 µg/mL
same,selectivity ratio,[4],7.7
Nc1nc2nonc2nc1Nc1cccc(Cl)c1,minimal effective concentration,Escherichia coli [1],4 µg/mL
CC(C)CCNc1nc2nonc2nc1Nc1cccc(Cl)c1,minimal effective concentration,Escherichia coli [1],1 µg/mL
Clc1cccc(Nc2nc3nonc3nc2NC2CCC2)c1,minimal effective concentration,Escherichia coli [1],1 µg/mL
"[H][C@@]1([C@@H](C)O)NC(=O)[C@H](CCN)NC(=O)[C@H](CCN)NC(=O)[C@H](CC(C)C)NC(=O)[C@@H](CC(C)C)NC(=O)[C@H](CCN)NC(=O)[C@@H](NC(=O)[C@H](CCN)NC[C@H](NC(=O)[C@H](CCN)NC(=O)CCCCC(C)C)[C@@H](C)O)CCNC1=O.[H][C@@]1([C@@H](C)O)NC(=O)[C@H](CCN)NC(=O)[C@H](CCN)NC(=O)[C@H](CC(C)C)NC(=O)[C@@H](CC(C)C)NC(=O)[C@H](CCN)NC(=O)[C@@H](NC(=O)[C@H](CCN)NC[C@H](NC(=O)[C@H](CCN)NC(=O)CCCCC(C)CC)[C@@H](C)O)CCNC1=O (stereo partly drawn) (HELM PEPTIDE1{[C[C@@H](O)[C@H](CN[C@@H](CCN)C(=O)[*:2])N[*:3]].[Dab].[Dab].[dL].L.[Dab].[Dab].T}|PEPTIDE2{[CCC(C)CCCCC(=O)[*:2]].[Dab]}$PEPTIDE1,PEPTIDE2,1:R3-2:R2|PEPTIDE1,PEPTIDE1,2:R3-8:R2$$$V2.0)",MIC,Escherichia coli [13],8 µg/mL
same,MIC,Escherichia coli [14],8 µg/mL
same,MIC,Salmonella typhimurium [15],8 µg/mL
same,MIC,Salmonella typhimurium [16],16 µg/mL
same,MIC,Klebsiella pneumoniae [17],16 µg/mL
same,MIC,Acinetobacter baumannii [18],8 µg/mL
same,MIC,Pseudomonas aeruginosa [19],4 µg/mL

# Source: ChEMBL document CHEMBL6087399, “Extended structure-activity relationship studies of the [1,2,5]oxadiazolo[3,4-b]pyrazine-containing colistin adjuvants” (Bioorg Med Chem Lett, 2025)
